Assay results as given in patent publication US10464947B2 (Incyte Corporation, priority 2013, dated 2019).
Where two headings read alike, the source gives them in different places.

Key:
[1] = test system: KMS.12.BM cells; test: KMS.12.BM Cell Viability Assay (Example B1); type: cell-based, human; settings: Homo sapiens, 72 h, 3 days, Cell Titer-GLO, read-out: KMS cellular IC50
In short: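 KMS.12.BM human myeloma cells, 5000 cells/well in RPMI with 10% FBS, exposed to a compound concentration range for 3 days. Viable cells measured by ATP-based Cell Titer-GLO luminescence after 10 min at room temperature.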

[2] = test system: C-myc in KMS.12.BM cells; test: KMS.12.BM C-Myc ELISA Assay (Example C1); type: cell-based; settings: Homo sapiens, 2 h
Protocol: KMS.12.BM C-Myc ELISA Assay
KMS.12.BM cell line (human myeloma) was purchased from JCRB (Osaka, Japan) and maintained in RPMI with 10% FBS culture medium. To measure the C-myc inhibitory activity of the compounds, the KMS.12.BM cells are plated in the RPMI culture medium at 75000 cells/well/per 200 μL into a 96-well flat bottom polystyrene tissue culture plate (Corning through VWR, NJ), in the presence or absence of a concentration range of test compounds. After 2 h, cells are pelleted and lysed with Cell Extraction Buffer (BioSource, Carlsbad, Calif.) in the presence of protease inhibitors (Life Technologies, Grand Island, N.Y. and Sigma, St Louis, Mo.). Clarified lyses are tested in a C-myc commercial ELISA (Life Technologies, Grand Island, N.Y.).

With `Cc1noc(C)c1-c1ccc2nc(NC(C)CO)n3c2c1OCC3c1ccccc1` (single isomer, unassigned) [Example 30, 2-{[7-(3,5-Dimethylisoxazol-4-yl)-4-phenyl-4,5-dihydroimidazo[1,5,4-de][1,4]benzoxazin-2-yl]amino}propan-1-ol] as the compound, how does the IC50 [1] read?
Its IC50 is < 1 µM.

What about the IC50 [2] of the same compound?
Its IC50 is < 1 µM.

`Cc1noc(C)c1-c1ccc2nc(C3CCNC3)n3c2c1OC[C@@H]3c1ccccn1` (single isomer, unassigned) [Example 106A] was tested. Which IC50 [2] did it give?
Its IC50 is < 1 µM.

`CCNC(=O)c1ncccc1C1COc2c(-c3c(C)noc3C)ccc3[nH]c(=O)n1c23` (single isomer, unassigned) [Example 133, 3-[7-(3,5-dimethylisoxazol-4-yl)-2-oxo-1,2,4,5-tetrahydroimidazo[1,5,4-de][1,4]benzoxazin-4-yl]-N-ethylpyridine-2-carboxamide] was tested. Which IC50 [1] did it give?
The IC50 was < 1 µM.

What about the IC50 [2] of the same compound?
Its IC50 is < 1 µM.

With `Cc1noc(C)c1-c1ccc2[nH]c(=O)n3c2c1OCC3c1cccnc1C(=O)NC1CC1` (single isomer, unassigned) [Example 134, N-Cyclopropyl-3-[7-(3,5-dimethylisoxazol-4-yl)-2-oxo-1,2,4,5-tetrahydroimidazo[1,5,4-de][1,4]benzoxazin-4-yl]pyridine-2-carboxamide] as the compound, how does the IC50 [1] read?
The IC50 was < 1 µM.

And the IC50 [2]?
The IC50 was < 1 µM.

Which results are given for `Cc1noc(C)c1-c1cc(C(C)O)c2[nH]c(=O)n3c2c1OC[C@@H]3c1ccccn1` (single isomer, unassigned) [Example 144A]?
IC50 [1]: < 1 µM; IC50 [2]: < 1 µM

How did the IC50 [1] turn out when `Cc1noc(C)c1-c1ccc2c3c1OCC(c1ccccc1)n3c(=O)n2C` (centres unmarked) [Example 2, 7-(3,5-Dimethylisoxazol-4-yl)-1-methyl-4-phenyl-4,5-dihydroimidazo[1,5,4-de][1,4]benzoxazin-2(1H)-one] was run?
The IC50 was < 1 µM.

And the IC50 [2]?
Its IC50 is < 1 µM.

`Cc1noc(C)c1-c1ccc2[nH]c(=O)n3c2c1OC(C)C3c1ccccc1` (centres unmarked) [Example 3, 7-(3,5-Dimethylisoxazol-4-yl)-5-methyl-4-phenyl-4,5-dihydroimidazo[1,5,4-de][1,4]benzoxazin-2(1H)-one] was tested. Which IC50 [1] did it give?
Its IC50 is < 1 µM.

And the IC50 [2]?
Its IC50 is < 1 µM.

With `Cc1noc(C)c1-c1ccc2[nH]c(=O)n3c2c1OCC3c1ccc(C#N)cc1` (centres unmarked) [Example 4, 4-[7-(3,5-Dimethylisoxazol-4-yl)-2-oxo-1,2,4,5-tetrahydroimidazo[1,5,4-de][1,4]benzoxazin-4-yl]benzonitrile] as the compound, how does the IC50 [1] read?
Its IC50 is < 1 µM.

And the IC50 [2]?
Its IC50 is < 1 µM.

Which IC50 [1] does the source give for `Cc1noc(C)c1-c1ccc2[nH]c(=O)n3c2c1OCC3c1cccnc1` (centres unmarked) [Example 5, 7-(3,5-Dimethylisoxazol-4-yl)-4-pyridin-3-yl-4,5-dihydroimidazo[1,5,4-de][1,4]benzoxazin-2(1H)-one] here?
The IC50 was < 1 µM.

And the IC50 [2]?
Its IC50 is < 1 µM.

With `COc1ccccc1C1COc2c(-c3c(C)noc3C)ccc3[nH]c(=O)n1c23` (centres unmarked) [Example 7, 7-(3,5-Dimethylisoxazol-4-yl)-4-(2-methoxyphenyl)-4,5-dihydroimidazo[1,5,4-de][1,4]benzoxazin-2(1H)-one] as the compound, how does the IC50 [1] read?
Its IC50 is < 1 µM.

And the IC50 [2]?
Its IC50 is < 1 µM.

How did the IC50 [1] turn out when `Cc1noc(C)c1-c1ccc2[nH]c(=O)n3c2c1OCC3c1ccc(F)cc1F` (centres unmarked) [Example 8, 7-(3,5-Dimethylisoxazol-4-yl)-4-(2,4-difluorophenyl)-4,5-dihydroimidazo[1,5,4-de][1,4]benzoxazin-2(1H)-one] was run?
The IC50 was < 1 µM.

And the IC50 [2]?
Its IC50 is < 1 µM.

How did the IC50 [1] turn out when `Cc1noc(C)c1-c1ccc2nc(C)n3c2c1OCC3c1ccccc1` (centres unmarked) [Example 9, 7-(3,5-Dimethylisoxazol-4-yl)-2-methyl-4-phenyl-4,5-dihydroimidazo[1,5,4-de][1,4]benzoxazine] was run?
Its IC50 is < 1 µM.

What about the IC50 [2] of the same compound?
The IC50 was < 1 µM.

`Cc1noc(C)c1-c1ccc2c3c1OCC(c1ccccc1)n3c(=O)n2CCN1CCOCC1` (centres unmarked) [Example 10, 7-(3,5-Dimethylisoxazol-4-yl)-1-(2-morpholin-4-ylethyl)-4-phenyl-4,5-dihydroimidazo[1,5,4-de][1,4]benzoxazin-2(1H)-one] was tested. Which IC50 ([1]; KMS-12-BM) did it give?
The IC50 was < 1 µM.

And the IC50 [2]?
The IC50 was < 1 µM.

What does the source list for `Cc1noc(C)c1-c1ccc2[nH]c(=O)n3c2c1OCC3c1nccs1` (centres unmarked) [Example 21, 7-(3,5-Dimethylisoxazol-4-yl)-4-(1,3-thiazol-2-yl)-4,5-dihydroimidazo[1,5,4-de][1,4]benzoxazin-2(1H)-one]?
IC50 [1]: < 1 µM; IC50 [2]: < 1 µM

Which results are given for `Cc1noc(C)c1-c1ccc2nc(NC(C)C)n3c2c1OCC3c1ccccc1` (centres unmarked) [Example 25, 7-(3,5-Dimethylisoxazol-4-yl)-N-isopropyl-4-phenyl-4,5-dihydroimidazo[1,5,4-de][1,4]benzoxazin-2-amine]?
IC50 [1]: < 1 µM; IC50 [2]: < 1 µM

For `CNc1nc2ccc(-c3c(C)noc3C)c3c2n1C(c1ccccc1)CO3` (centres unmarked) [Example 26, 7-(3,5-Dimethylisoxazol-4-yl)-N-methyl-4-phenyl-4,5-dihydroimidazo[1,5,4-de][1,4]benzoxazin-2-amine], which IC50 [1] is on record?
The IC50 was < 1 µM.

What about the IC50 [2] of the same compound?
The IC50 was < 1 µM.

How did the IC50 [1] turn out when `CCNc1nc2ccc(-c3c(C)noc3C)c3c2n1C(c1ccccc1)CO3` (centres unmarked) [Example 27, 7-(3,5-Dimethylisoxazol-4-yl)-N-ethyl-4-phenyl-4,5-dihydroimidazo[1,5,4-de][1,4]benzoxazin-2-amine] was run?
The IC50 was < 1 µM.

What about the IC50 [2] of the same compound?
The IC50 was < 1 µM.

`Cc1noc(C)c1-c1ccc2nc(N(C)C)n3c2c1OCC3c1ccccc1` (centres unmarked) [Example 28, 7-(3,5-Dimethylisoxazol-4-yl)-N,N-dimethyl-4-phenyl-4,5-dihydroimidazo[1,5,4-de][1,4]benzoxazin-2-amine] was tested. Which IC50 [1] did it give?
Its IC50 is < 1 µM.

And the IC50 [2]?
Its IC50 is < 1 µM.

For `Cc1noc(C)c1-c1ccc2nc(NCCO)n3c2c1OCC3c1ccccc1` (centres unmarked) [Example 29, 2-{[7-(3,5-Dimethylisoxazol-4-yl)-4-phenyl-4,5-dihydroimidazo[1,5,4-de][1,4]benzoxazin-2-yl]amino}ethanol], which IC50 [1] is on record?
Its IC50 is < 1 µM.

What about the IC50 [2] of the same compound?
The IC50 was < 1 µM.

For `Cc1noc(C)c1-c1ccc2nc(NCC(C)O)n3c2c1OCC3c1ccccc1` (centres unmarked) [Example 32, 1-{[7-(3,5-Dimethylisoxazol-4-yl)-4-phenyl-4,5-dihydroimidazo[1,5,4-de][1,4]benzoxazin-2-yl]amino}propan-2-ol], which IC50 [1] is on record?
The IC50 was < 1 µM.

What about the IC50 [2] of the same compound?
The IC50 was < 1 µM.

What does the source list for `Cc1noc(C)c1-c1ccc2nc(N(C)CCO)n3c2c1OCC3c1ccccc1` (centres unmarked) [Example 34, 2-[[7-(3,5-Dimethylisoxazol-4-yl)-4-phenyl-4,5-dihydroimidazo[1,5,4-de][1,4]benzoxazin-2-yl](methyl)amino]ethanol]?
IC50 [1]: < 1 µM; IC50 [2]: < 1 µM

With `Cc1noc(C)c1-c1cc(-c2cn[nH]c2)c2[nH]c(=O)n3c2c1OCC3c1ccccn1` (centres unmarked) [Example 256, 7-(3,5-dimethylisoxazol-4-yl)-9-(1H-pyrazol-4-yl)-4-pyridin-2-yl-4,5-dihydroimidazo[1,5,4-de][1,4]benzoxazin-2(1H)-one] as the compound, how does the IC50 [1] read?
Its IC50 is < 1 µM.

With `Cc1noc(C)c1-c1cc(-c2cn[nH]c2C)c2[nH]c(=O)n3c2c1OCC3c1ccccn1` (centres unmarked) [Example 257, 7-(3,5-dimethylisoxazol-4-yl)-9-(3-methyl-1H-pyrazol-4-yl)-4-pyridin-2-yl-4,5-dihydroimidazo[1,5,4-de][1,4]benzoxazin-2(1H)-one] as the compound, how does the IC50 [1] read?
The IC50 was < 1 µM.

With `Cc1noc(C)c1-c1cc(-c2ccc(O)nc2)c2[nH]c(=O)n3c2c1OC[C@@H]3c1ccccn1` [Example 259, (4S)-7-(3,5-dimethylisoxazol-4-yl)-9-(6-hydroxypyridin-3-yl)-4-pyridin-2-yl-4,5-dihydroimidazo[1,5,4-de][1,4]benzoxazin-2(1H)-one] as the compound, how does the IC50 ([1]; KMS-12-BM) read?
Its IC50 is 1 to 10 µM.

How did the IC50 [1] turn out when `Cc1noc(C)c1-c1cc(-c2ccnc(O)c2)c2[nH]c(=O)n3c2c1OC[C@@H]3c1ccccn1` [Example 260, (4S)-7-(3,5-dimethylisoxazol-4-yl)-9-(2-hydroxypyridin-4-yl)-4-pyridin-2-yl-4,5-dihydroimidazo[1,5,4-de][1,4]benzoxazin-2(1H)-one] was run?
Its IC50 is 1 to 10 µM.

For `Cc1noc(C)c1-c1cc(CNc2ccccc2)c2[nH]c(=O)n3c2c1OCC3c1ccccn1` (centres unmarked) [Example 262, 9-(anilinomethyl)-7-(3,5-dimethylisoxazol-4-yl)-4-pyridin-2-yl-4,5-dihydroimidazo[1,5,4-de][1,4]benzoxazin-2(1H)-one], which IC50 [1] is on record?
The IC50 was < 1 µM.

How did the IC50 [1] turn out when `COc1ccc(CNCc2cc(-c3c(C)noc3C)c3c4c2[nH]c(=O)n4C(c2ccccn2)CO3)cc1` (centres unmarked) [Example 263, 7-(3,5-dimethylisoxazol-4-yl)-9-{[(4-methoxybenzyl)amino]methyl}-4-pyridin-2-yl-4,5-dihydroimidazo[1,5,4-de][1,4]benzoxazin-2(1H)-one] was run?
The IC50 was < 1 µM.

With `Cc1noc(C)c1-c1cc(C(O)C(C)C)c2[nH]c(=O)n3c2c1OCC3c1ccccn1` (centres unmarked) [Example 264, 7-(3,5-dimethylisoxazol-4-yl)-9-(1-hydroxy-2-methylpropyl)-4-pyridin-2-yl-4,5-dihydroimidazo[1,5,4-de][1,4]benzoxazin-2(1H)-one] as the compound, how does the IC50 [1] read?
Its IC50 is < 1 µM.

Which IC50 ([1]; KMS-12-BM) does the source give for `Cc1noc(C)c1-c1cc(F)c2[nH]c(=O)n3c2c1OCC3c1ccccn1` (centres unmarked) [Example 265B, 7-(3,5-dimethylisoxazol-4-yl)-9-fluoro-4-pyridin-2-yl-4,5-dihydroimidazo[1,5,4-de][1,4]benzoxazin-2(1H)-one] here?
The IC50 was < 1 µM.

How did the IC50 ([1]; KMS-12-BM) turn out when `Cc1noc(C)c1-c1cc(C#N)c2[nH]c(=O)n3c2c1OCC3c1ccccn1` (centres unmarked) [Example 269A, 7-(3,5-dimethylisoxazol-4-yl)-2-oxo-4-pyridin-2-yl-1,2,4,5-tetrahydroimidazo[1,5,4-de][1,4]benzoxazine-9-carbonitrile] was run?
The IC50 was < 1 µM.
